Laboratory results taken from US8178687B2, “Derivatives of pyrroloindole which are inhibitors of Hsp90, compositions containing same, and use thereof” (Sanofi-Aventis, priority 2009, dated 2012).

target: Hsp82 (Saccharomyces cerevisiae, UniProt P02829); assay: Hsp82 ATPase activity, pyruvate kinase/lactate dehydrogenase enzymatic coupling method (NADH absorbance at 340 nm); type: biochemical; conditions: 1 μM Hsp82, 250 μM ATP, 37° C., PK/LDH coupled, initial rate
From the text: The formation of ADP due to the ATPase activity of Hsp82 was used to develop another method for evaluating the enzymatic activity of this enzyme by application of an enzymatic coupling system involving pyruvate kinase (PK) and lactate dehydrogenase (LDH). In this kinetic-type spectrophotometric method, PK catalyses the formation of ATP and of pyruvate from phosphoenol pyruvate (PEP) and the ADP produced by Hsp82. The pyruvate formed, which is a substrate for LDH, is subsequently converted to lactate in the presence of NADH. In this case, the decrease in NADH concentration, measured through the decrease in absorbance at the wavelength of 340 nm, is proportional to the concentration of ADP produced by Hsp82.
The products tested are incubated in a reaction volume of 100 μl of buffer composed of 100 mM Hepes-NaOH (pH 7.5), 5 mM MgCl2, 1 mM DTT, 150 mM KCl, 0.3 mM NADH, 2.5 mM PEP and 250 μM ATP. This mixture is preincubated at 37° C. for 30 minutes before the addition of 3.77 units of LDH and 3.77 units of PK. The reaction is initiated by addition of the product to be evaluated, in varying concentrations, and of Hsp82, at the concentration of 1 μM. The enzymatic activity of Hsp82 is then measured continuously, in a microplate reader, at 37° C., at the wavelength of 340 nm. The initial rate of the reaction is obtained by measuring the slope of the tangent to the origin of the curve recorded. The enzymatic activity is expressed in μM of ADP formed per minute. The effect of the various products tested is expressed as capacity for inhibiting the ATPase activity according to the codification below: […]

Chain of Hsp82 (P02829 whole entry): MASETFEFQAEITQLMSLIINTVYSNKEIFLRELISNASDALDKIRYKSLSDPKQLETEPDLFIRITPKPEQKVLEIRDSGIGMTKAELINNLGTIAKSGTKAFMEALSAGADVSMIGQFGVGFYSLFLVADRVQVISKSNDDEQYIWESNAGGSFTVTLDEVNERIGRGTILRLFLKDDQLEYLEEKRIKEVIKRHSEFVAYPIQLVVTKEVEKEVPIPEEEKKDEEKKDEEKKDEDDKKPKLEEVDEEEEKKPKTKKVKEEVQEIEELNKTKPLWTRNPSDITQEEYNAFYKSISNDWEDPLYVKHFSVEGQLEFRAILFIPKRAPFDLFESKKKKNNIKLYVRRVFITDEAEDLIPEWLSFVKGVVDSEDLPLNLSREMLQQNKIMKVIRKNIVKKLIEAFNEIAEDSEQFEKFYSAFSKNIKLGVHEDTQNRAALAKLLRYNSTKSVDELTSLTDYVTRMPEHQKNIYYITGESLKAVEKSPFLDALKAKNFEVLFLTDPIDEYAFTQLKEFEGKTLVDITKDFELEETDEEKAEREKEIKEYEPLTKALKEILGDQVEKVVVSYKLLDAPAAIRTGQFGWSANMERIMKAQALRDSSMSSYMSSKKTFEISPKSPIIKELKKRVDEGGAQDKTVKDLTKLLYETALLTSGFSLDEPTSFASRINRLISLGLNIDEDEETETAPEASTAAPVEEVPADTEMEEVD

Row | SMILES | IC50 [µM]
1 | O=C(NC1c2cccc(-c3nc4ccc(F)cc4[nH]3)c2-n2cccc21)c1ccnc2[nH]ccc12 (stereo not shown) [Example 1, 1H-pyrrolo[2,3-b]pyridine-4-carboxylic acid [5-(6-fluoro-1H-benzimidazol-2-yl)-9H-pyrrolo[1,2-a]indol-9-yl]amide] | < 1
2 | O=C(NC1c2cccc(-c3nc4ccncc4[nH]3)c2-n2cccc21)c1ccnc2[nH]ccc12 (stereo not shown) [Example 3, 1H-pyrrolo[2,3-b]pyridine-4-carboxylic acid [5-(3H-imidazo[4,5-c]pyridin-2-yl)-9H-pyrrolo[1,2-a]indol-9-yl]amide] | < 1
3 | O=C(NC1c2cccc(-c3cnc4ccccc4c3)c2-n2cccc21)c1ccnc2[nH]ccc12 (stereo not shown) [Example 2, 1H-pyrrolo[2,3-b]pyridine-4-carboxylic acid (5-quinolin-3-yl-9H-pyrrolo[1,2-a]indol-9-yl)amide] | 1 to 10
4 | O=C(NC1c2cccc(-c3nc4ccncc4[nH]3)c2-n2cccc21)c1cc(Cl)nc2[nH]ccc12 (stereo not shown) [Example 4, 6-chloro-1H-pyrrolo[2,3-b]pyridine-4-carboxylic acid [5-(3H-imidazo[4,5-c]pyridin-2-yl)-9H-pyrrolo[1,2-a]indol-9-yl]amide] | 1 to 10
